Assay results taken from PubChem BioAssay AID1645866 (Buhrlage Lab, Dana-Farber Cancer Institute and Novartis …, 2021).
pIC50: −log10 of the molar value. Active and inactive are the calls of the source.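 Rule for the calls: active = in confirmatory dose-response testing, peak deubiquitinase inhibition of 30% or more; inactive = the rest.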

Molecular target: Ubiquitin carboxyl-terminal hydrolase 28 (Homo sapiens) (UniProt Q96RU2)
Assay: Ubiquitin-specific peptidase 28 DUB inhibitors, biochemical concentration-dependence assay, validation of primary screening hits (AID 1645866)
Details: purified USP28, ubiquitin-rhodamine fluorescence, 30 min

Sequence of Ubiquitin carboxyl-terminal hydrolase 28 (Homo sapiens) (Q96RU2 whole entry, looked up): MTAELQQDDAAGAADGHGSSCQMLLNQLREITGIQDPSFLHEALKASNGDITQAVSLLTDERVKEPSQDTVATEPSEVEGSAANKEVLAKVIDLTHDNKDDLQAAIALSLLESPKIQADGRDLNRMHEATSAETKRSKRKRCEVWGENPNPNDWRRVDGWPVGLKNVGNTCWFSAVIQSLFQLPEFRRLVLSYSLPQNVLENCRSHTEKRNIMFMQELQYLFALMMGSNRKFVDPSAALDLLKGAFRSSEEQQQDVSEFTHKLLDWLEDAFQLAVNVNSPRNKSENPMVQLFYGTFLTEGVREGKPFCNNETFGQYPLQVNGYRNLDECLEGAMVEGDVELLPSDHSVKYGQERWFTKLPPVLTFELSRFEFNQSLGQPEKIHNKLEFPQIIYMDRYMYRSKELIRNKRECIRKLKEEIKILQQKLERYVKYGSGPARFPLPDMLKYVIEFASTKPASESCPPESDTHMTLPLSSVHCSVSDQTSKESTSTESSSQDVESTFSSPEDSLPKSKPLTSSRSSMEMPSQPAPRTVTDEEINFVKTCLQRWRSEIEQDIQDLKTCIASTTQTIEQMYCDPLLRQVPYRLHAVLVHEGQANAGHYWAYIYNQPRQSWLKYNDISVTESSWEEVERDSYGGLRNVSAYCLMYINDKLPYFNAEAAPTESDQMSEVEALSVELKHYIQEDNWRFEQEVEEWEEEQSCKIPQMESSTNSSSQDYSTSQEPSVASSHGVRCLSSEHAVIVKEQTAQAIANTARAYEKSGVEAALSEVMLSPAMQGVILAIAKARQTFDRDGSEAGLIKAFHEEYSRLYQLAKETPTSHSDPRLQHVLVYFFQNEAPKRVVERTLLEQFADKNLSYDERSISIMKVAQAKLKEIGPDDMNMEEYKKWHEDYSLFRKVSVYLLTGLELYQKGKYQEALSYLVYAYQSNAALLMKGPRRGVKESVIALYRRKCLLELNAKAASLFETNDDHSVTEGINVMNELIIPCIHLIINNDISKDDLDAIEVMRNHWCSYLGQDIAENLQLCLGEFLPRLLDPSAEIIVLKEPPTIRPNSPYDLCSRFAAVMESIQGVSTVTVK

SMILES: CC(C)c1ccc(C(C(=O)NC2CCCCC2)N(C(=O)c2cnccn2)c2cccc(F)c2)cc1 (stereo not drawn)
- pIC50: 4.64

SMILES: CC[C@@]1(O)C[C@H](OC2CC(N(C)C)C(OC3CC(O)C(OC4CCC(=O)C(C)O4)C(C)O3)C(C)O2)c2c(cc3c(c2O)C(=O)c2c(O)ccc(O)c2C3=O)[C@H]1C(=O)OC (stereo partly drawn)
- pIC50: 5.37

SMILES: C[C@@H]1O[C@@H](O[C@H]2[C@H](O[C@H]3[C@H](O[C@H]4CC[C@@]5(C)[C@@H](CC[C@]6(C)[C@@H]5CC=C5[C@@H]7CC(C)(C)CC(=O)[C@]7(C)CC[C@]56C)[C@@]4(C)CO)O[C@H](C(=O)O)[C@@H](O)[C@@H]3O)OC[C@@H](O)[C@@H]2O)[C@H](O)[C@H](O)[C@H]1O
- pIC50: 4.32

SMILES: Cc1cccc(NC(=O)Cn2cnc(-c3noc(-c4ccccc4)n3)c2)c1C
- pIC50: 5.88

SMILES: COc1ccc(NS(=O)(=O)c2cc(NC(=O)CCc3nc4ccccc4s3)ccc2C)cc1
- pIC50: 4.62

SMILES: CCCn1c(=O)c(-c2ccc(C(=O)NCc3ccc(OC)cc3)cc2)nc2cccnc21
- pIC50: 5.74

SMILES: COc1c(C)c(C(O)C(C)O)c2[nH]c3ccc(CC=C(C)C)cc3c2c1O (stereo not drawn)
- pIC50: 4.76

SMILES: COc1cc(C(=O)Nc2ccc(-c3csc(C)n3)cc2)cc(OC)c1OC
- pIC50: 5.39

SMILES: Fc1ccc(Cn2ccc(-c3cnc(-c4ccccc4)s3)n2)cc1
- pIC50: 4.56

SMILES: CCCOc1ccc(C(=O)Nc2ccc(S(=O)(=O)Nc3cc(C)nc(C)n3)cc2)cc1
- pIC50: 4.50

SMILES: CCc1ccc2c(c1)[C@]1(C(=O)N2)[C@@H]2C(=O)N(c3ccc(Cl)cc3Cl)C(=O)[C@@H]2[C@@H]2CCCN21
- IC50: > 50 µM (inactive)

SMILES: O=C(NC1CCCC1)C1CC(=O)N(c2cccc(-c3noc(-c4cccs4)n3)c2)C1 (stereo not drawn)
- pIC50: 4.44

SMILES: CC(C)NS(=O)(=O)c1cccc2c(NC(=O)C(Cc3ccccc3)NC(=O)c3ccccc3)cccc12 (stereo not drawn)
- IC50: > 50 µM (inactive)

SMILES: COc1ccccc1CNC(=O)c1c(O)c2cnn(-c3cccc(C)c3)c2[nH]c1=O
- pIC50: 5.03

SMILES: CC(=O)Nc1ccc(S(=O)(=O)NCc2ccc(C(=O)NCCc3ccc(Cl)cc3)cc2)cc1
- pIC50: 5.75

SMILES: CCc1c(C)c(C#N)c2nc3ccccc3n2c1N1CCN(C2CCCC2)CC1
- pIC50: 4.91

SMILES: Cc1nc(N2CCCC2)ncc1-c1cc(=O)[nH]c(N2CCc3ccccc3C2)n1
- pIC50: 4.66

SMILES: O=C(Cn1c(=O)n(Cc2ccc(F)cc2)c(=O)c2sccc21)Nc1cccc(Cl)c1
- pIC50: 4.94

SMILES: O=S(=O)(c1ccc(F)cc1)N1CCCC1c1ccnc(Nc2cnccn2)n1 (stereo not drawn)
- IC50: > 50 µM (inactive)

SMILES: Cc1ccc(NC(=O)CCC(=O)Nc2ccc3nc(N4CCCCC4)cc(C)c3c2)c(Br)c1
- pIC50: 4.64

SMILES: COc1ccc(NC(=O)CSc2oc(-c3ccc(C)cc3)nc2S(=O)(=O)c2ccc(Br)cc2)c(OC)c1
- IC50: > 50 µM (inactive)

SMILES: Cc1ccc(S(=O)(=O)N2CCC3(CC2)NC(=O)c2ccccc2N3)c(C)c1
- pIC50: 4.50

SMILES: Cn1c(-c2nnc(SCC(=O)NCCc3ccccc3)o2)cc2ccccc21
- pIC50: 4.63

SMILES: CC(=O)CN1CC2(CCN(Cc3ccc(F)cc3)CC2)COc2ccccc2S1(=O)=O
- IC50: > 50 µM (inactive)

SMILES: CCn1cc(-c2cc(C(=O)Nc3cnn(Cc4cccc(F)c4)c3)c3ccccc3n2)cn1
- pIC50: 4.38

SMILES: Cc1ccc2[nH]c3c(=O)n(CC4CCCO4)cnc3c2c1 (stereo not drawn)
- pIC50: 4.74

SMILES: Cc1cc(=O)oc2cc(OCC(=O)Nc3cc(Cl)ccc3N3CCOCC3)ccc12
- pIC50: 4.39

SMILES: CCCCCn1c(Sc2ccc(C)cc2)nc2c1c(=O)[nH]c(=O)n2C
- pIC50: 4.84

SMILES: CCN(Cc1ccccc1)S(=O)(=O)c1ccc(C(=O)Nc2ccc3c(c2)OCCO3)cc1
- pIC50: 5.22

SMILES: O=C(NC1CCCC1)c1cccc(-c2ccc(N3CCCC3)nc2)c1
- pIC50: 5.09

SMILES: CN[C@H]1CC2(CCN(C(=O)CCCn3cccn3)CC2)OC[C@]1(C)O
- IC50: > 50 µM (inactive)

SMILES: NS(=O)(=O)c1ccc(NS(=O)(=O)c2ccc(NC(=O)Nc3ccc(Cl)cc3)cc2)cc1
- pIC50: 5.41

SMILES: Cc1cn[nH]c1C1COCCN1C(=O)c1ccc2ncccc2c1 (stereo not drawn)
- IC50: > 50 µM (inactive)

SMILES: Cc1nc2ccccn2c1C1(O)C(=O)Nc2c(Cl)cc(Cl)cc21 (stereo not drawn)
- IC50: > 50 µM (inactive)

SMILES: CNC(=O)CC1NC(=O)c2csc(n2)-c2ccc(-c3nc(C4=NC(C(=O)N5CCCC5C(N)=O)CO4)cs3)nc2-c2csc(n2)-c2csc(n2)C(C(O)c2ccccc2)NC(=O)CNC(=O)c2nc(sc2COC)C(C(C)C)NC(=O)c2nc1sc2C (stereo not drawn)
- pIC50: 4.94

SMILES: CCOc1cc(N2CCOCC2)c(OCC)cc1NC(=O)c1cc(-c2ccncc2)nc2ccccc12
- pIC50: 5.14

SMILES: CSc1ccccc1C(=O)Nc1nc(-c2ccncc2)cs1
- pIC50: 4.51

SMILES: COc1ccc(CN=C2NS(=O)(=O)C(c3ccc(F)cc3)=C2C)cc1OC
- pIC50: 4.64

SMILES: O=c1c2ccccc2oc2nc(-c3cccs3)n(-c3ccccc3)c(=O)c12
- pIC50: 5.67

SMILES: COc1ccc(CNC(=O)CCc2nnc3n(Cc4ccccc4Cl)c(=O)c4ccccc4n23)cc1
- pIC50: 5.66

SMILES: O=C(NCc1ccccc1Cl)C1CCCN(c2nc3ccsc3c(=O)s2)C1 (stereo not drawn)
- pIC50: 5.49

SMILES: CCc1ccc(-c2nc(SCC(=O)Nc3ccc4[nH]c(=O)[nH]c4c3)n[nH]2)cc1
- pIC50: 4.63

SMILES: Nc1ccc(NC(=O)c2cc3c(s2)CCC3)cc1[N+](=O)[O-]
- pIC50: 4.77

SMILES: CC(C)c1cc(Nc2cccc(F)c2)n2nc(-c3cccnc3)nc2n1
- pIC50: 4.61

SMILES: COc1ccc(-n2c(SCC(=O)c3ccc(F)cc3)nnc2-c2cccnc2)cc1
- pIC50: 4.73

SMILES: C=C(NC(=O)C(=C)NC(=O)c1csc(-c2ccc3c(n2)-c2csc(n2)-c2csc(n2)C(C(C)C2CO2)NC(=O)C(Cc2ccc(O)cc2)NC(=O)c2csc(n2)C(C(O)c2ccccc2)NC(=O)c2nc(sc2C)C(CC(N)=O)NC(=O)c2csc-3n2)n1)C(=O)O (stereo not drawn)
- pIC50: 4.60

SMILES: O=C(OC1CSc2nc3ccccc3n2C1)c1ccc([N+](=O)[O-])o1 (stereo not drawn)
- pIC50: 4.48

SMILES: Cc1noc(C)c1COc1cccc(C(=O)Nc2cc(Cl)ccc2-n2cncn2)c1
- IC50: > 50 µM (inactive)

SMILES: COc1ccccc1-c1nc2c3c(C)c(C)n(Cc4cccnc4)c3ncn2n1
- pIC50: 4.69

SMILES: O=C(Nc1ccc(-c2cn3ccccc3n2)cc1)C1C=C2C=C(Br)C=CC2OC1=O (stereo not drawn)
- pIC50: 5.71

SMILES: Cc1ccc2c(c1)c(=O)c(C(=O)c1ccccc1)cn2CC(=O)Nc1ccccc1
- pIC50: 4.81

SMILES: O=C1NC(=O)/C(=C/c2ccc(OC(=O)c3ccc(Cl)cc3Cl)cc2)N1
- pIC50: 5.35

SMILES: COc1ccc2ncc3c(-c4ccc(C)cc4)nn(-c4ccc(F)cc4)c3c2c1
- pIC50: 5.68

SMILES: O=c1c(OC2O[C@H](CO)[C@H](O)[C@H](O)[C@H]2O)c(-c2ccc(O)cc2)oc2cc(O)cc(O)c12 (stereo partly drawn)
- IC50: > 50 µM (inactive)

SMILES: c1ccc2c(Cc3nc(-c4ccncc4)no3)cccc2c1
- pIC50: 6.43

SMILES: O=C(Nc1ccc2c(c1)OCCO2)Nc1nnc(CC(=O)N2CCCCC2)s1
- pIC50: 4.69

SMILES: Cc1ccc(S(=O)(=O)N(C)C)cc1NC(=O)Cc1ccc(Cl)c(Cl)c1
- pIC50: 6.56

SMILES: Cc1ccccc1Cn1ccc2ccn(Cc3cccnc3)c2c1=O
- pIC50: 4.98

SMILES: Cc1ccc(Cl)cc1NC(=O)COC(=O)c1ccc2ccccc2n1
- IC50: > 50 µM (inactive)

SMILES: O=S1(=O)CCN(Cc2c(F)cccc2F)c2c(F)nc(N3CCOCC3)c(F)c21
- IC50: > 50 µM (inactive)

SMILES: N#Cc1ccccc1Cn1c(=O)n(CCCCC(=O)NCCc2ccccc2)c(=O)c2ccccc21
- pIC50: 4.71

SMILES: O=C(Nc1cccn(Cc2c(Cl)cccc2Cl)c1=O)c1ccccc1[N+](=O)[O-]
- pIC50: 5.32

SMILES: Cc1cccc(NC(=O)CN2C(=O)COc3cc(S(=O)(=O)N4CCCC4)ccc32)c1C
- pIC50: 4.68

SMILES: CC(=O)c1ccc(NC(=O)C[n+]2cc(-c3ccc(Cl)cc3)n3c2CCC3)cc1
- pIC50: 4.50

SMILES: CN(C(=O)c1ccncc1)[C@H]1CC[C@@]2(C)C[C@H](c3ccccc3)C[C@](C)(O2)[C@@H]1O
- IC50: > 50 µM (inactive)

SMILES: CS(=O)(=O)N1CCc2cc(C(=O)Nc3ccc(Cc4ccncc4)cc3)ccc21
- pIC50: 5.06

SMILES: COc1ccc(NC(=O)c2nnc(C(=O)NCCN3CCCCCC3)s2)cc1
- pIC50: 4.91

SMILES: O=C(Nc1ccccc1Sc1ncc(-c2ccc(Cl)cc2)cn1)c1ccco1
- pIC50: 4.63

SMILES: O=C(NC1(O)C(=O)c2ccccc2C1=O)c1cccc2c1-c1ccccc1C2=O
- pIC50: 4.49

SMILES: COC(=O)c1cc(C#N)c(NCc2ccccc2)nc1C
- pIC50: 4.34

SMILES: Cc1nc(-c2noc(-c3ccncc3)n2)cn1CC(=O)N1CCN(c2ccc(F)cc2)CC1
- pIC50: 4.43

SMILES: O=c1c(NCCCN2CCCC2)nc2ccncc2n1Cc1ccccc1
- IC50: > 50 µM (inactive)

SMILES: O=C(Nc1ccccc1)C1CCCN(C(=O)c2cc3ccccc3[nH]2)C1 (stereo not drawn)
- pIC50: 4.41

SMILES: CCC(=O)OCc1cnc(C)c2oc(=O)c(-c3nc(-c4ccccc4)no3)cc12
- IC50: > 50 µM (inactive)

SMILES: COc1ccc(NC(=O)C2[C@@H]3C(=O)N(C4CCCCC4)C(=O)[C@@H]3[C@H]3c4ccccc4C=CN23)cc1 (stereo partly drawn)
- pIC50: 4.43

SMILES: COc1ccc(OC)c(NC(=O)Cn2c(=O)n(CC3CCC(C(=O)NCCc4ccccc4)CC3)c(=O)c3ccccc32)c1 (stereo not drawn)
- pIC50: 5.34

SMILES: COc1ccc(CNC(=O)c2ccccc2N2C(=O)N3CCc4c([nH]c5ccccc45)[C@@]3(C)C2=O)cc1
- pIC50: 4.43

SMILES: CCCNc1cc(-c2ccccc2)nc2nc(-c3cccnc3)nn12
- IC50: > 50 µM (inactive)

SMILES: O=C(CN1C=NC2=NS(=O)(=O)c3ccccc3N21)Nc1cc(F)ccc1F
- pIC50: 4.55

SMILES: O=C(NCCc1ccccn1)c1cc(-c2ccc(Br)cc2)n[nH]1
- pIC50: 4.86

SMILES: COc1ccccc1-c1ccc(SCC(=O)Nc2ccc3c(c2)OCCO3)nn1
- pIC50: 5.69

SMILES: COCCNC(=O)c1ccc(-c2ccc(N3CCCCC3)nc2)cc1
- pIC50: 4.71

SMILES: Cn1c(CN2CCCCCC2)nc2cc(NC(=O)c3ccccc3)ccc21
- IC50: > 50 µM (inactive)

SMILES: CCCCNC(=O)C1Sc2nnc(-c3ccccc3)n2NC1c1ccccc1 (stereo not drawn)
- pIC50: 4.74

SMILES: FC(F)(F)c1cccc(N2CCN(c3nc4ccccc4n4nnnc34)CC2)c1
- IC50: > 50 µM (inactive)

SMILES: O=C(NCc1cccc(NC(=O)C2CC2)c1)Nc1cccc2ccccc12
- pIC50: 4.69

SMILES: CCOC(=O)c1cccc(NC(=O)Nc2cccn3nc(C)nc23)c1
- pIC50: 6.12

SMILES: N#C/C(=C/c1sc(N2CCOCC2)nc1-c1ccccc1)c1ccccn1
- IC50: > 50 µM (inactive)

SMILES: Cc1ccc(-c2ccc(N3CCOCC3)nn2)cc1S(=O)(=O)N1CCOCC1
- IC50: > 50 µM (inactive)

SMILES: CSc1cccc(NC(=O)COc2cccc3ccccc23)c1
- pIC50: 5.59

SMILES: O=C(CSc1ncnc2c1sc1cccc(F)c12)N1CCCCCC1
- IC50: > 50 µM (inactive)

SMILES: O=C(O)COc1ccccc1/C=C1\CCc2c1nc1ccccc1c2C(=O)O
- IC50: > 50 µM (inactive)

SMILES: CCS(=O)(=O)N1CCc2cc(C(=O)Nc3ccc4c(c3)OCCO4)ccc21
- pIC50: 6.44
